Article PMC7619385 (ACS infectious diseases, 2025)
Read-outs that look alike come from different tables or passages of the source.

Biological target: T1, LmxCLK1 (Leishmania mexicana, UniProt E9AMP2)
T1 sequence (E9AMP2 1-422): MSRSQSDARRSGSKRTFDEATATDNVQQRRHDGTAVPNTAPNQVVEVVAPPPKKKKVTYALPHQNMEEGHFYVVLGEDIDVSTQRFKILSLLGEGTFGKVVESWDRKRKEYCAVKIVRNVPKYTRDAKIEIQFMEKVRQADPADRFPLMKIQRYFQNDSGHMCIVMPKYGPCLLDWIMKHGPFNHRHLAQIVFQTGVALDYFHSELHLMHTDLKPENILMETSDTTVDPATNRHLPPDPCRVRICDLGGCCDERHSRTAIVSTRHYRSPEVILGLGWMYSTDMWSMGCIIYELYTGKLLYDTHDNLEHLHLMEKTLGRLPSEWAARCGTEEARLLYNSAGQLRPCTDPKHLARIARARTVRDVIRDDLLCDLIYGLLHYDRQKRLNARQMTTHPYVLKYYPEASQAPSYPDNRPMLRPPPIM
Assay: biochemical
Format: binding

[1] = DSF, 10 µM compound, 2 µM LmxCLK1, Run 1, read-out: ΔTm Run 1
[2] = DSF, 10 µM compound, 2 µM LmxCLK1, Run 2, read-out: ΔTm Run 2
[3] = DSF, 10 µM compound, 2 µM LmxCLK1, mean of two runs, read-out: ΔTm Average
[4] = DSF, 10 µM compound, 2 µM LmxCLK1, Run 1
[5] = DSF, 10 µM compound, 2 µM LmxCLK1, Run 2
[6] = DSF, 10 µM compound, 2 µM LmxCLK1, mean of two runs

| Molecule | ΔTm at 10 µM [1] [°C] | ΔTm at 10 µM [2] [°C] | ΔTm at 10 µM [3] [°C] | ΔTm Run 1 [4] [°C] | ΔTm Run 2 [5] [°C] | ΔTm Average [6] [°C] | also measured |
| --- | --- | --- | --- | --- | --- | --- | --- |
| C[C@@H](Oc1cc(-n2cnc3ccc(CN4CCN(C)CC4)cc32)sc1C(N)=O)c1ccccc1C(F)(F)F [GSK461364] | 0.6 | 0.1 | 0.4 | – | – | – | – |
| COc1c(C)c(C(=O)c2ccc(N)c(C(=O)[O-])c2)n2ccccc12.[Na+] [SSR128129E] | – | – | – | – | – | – | ΔTm Average: -0.1; ΔTm Run 1: -0.1; ΔTm Run 2: -0.1 |
| Cc1cc(CN2CCN(c3c(Br)cnc4nc(-c5ccc(N6CCN(C)CC6)cc5)[nH]c34)CC2)no1 [CCT137690] | – | – | – | 0.3 | 0.4 | 0.3 | – |
| Cc1cc(N2CCOCC2)cc2[nH]c(-c3c(NC[C@@H](O)c4cccc(Cl)c4)cc[nH]c3=O)nc12 [BMS-536924] | – | – | – | 0.2 | 0.1 | 0.1 | – |
| COc1cc2c(N3CCN(C(=O)Nc4ccc(OC(C)C)cc4)CC3)ncnc2cc1OCCCN1CCCCC1 [Tandutinib (MLN518)] | – | – | – | 0.1 | -0.1 | 0.0 | – |
| CNC(=O)c1ccccc1Sc1ccc2c(/C=C/c3ccccn3)n[nH]c2c1 [Axitinib] | 0.6 | 0.4 | 0.5 | – | – | – | – |
| COc1ccc(F)c(F)c1C(=O)c1cnc(NC2CCN(S(C)(=O)=O)CC2)nc1N [R547] | – | – | – | – | – | – | ΔTm Average: -0.2; ΔTm Run 1: 0 °C; ΔTm Run 2: -0.4 |
| C=CC(=O)N1CCC[C@@H](n2nc(-c3ccc(Oc4ccccc4)cc3)c3c(N)ncnc32)C1 [Ibrutinib (PCI-32765)] | – | – | – | 0.2 | -0.2 | 0.0 | – |
| COc1cc2/c(=N/c3ccc(Br)cc3F)nc[nH]c2cc1OCC1CCN(C)CC1 [Vandetanib (ZD6474)] | – | – | – | 0.0 | -0.1 | -0.1 | – |
| O=C1NC(=O)/C(=C/c2cccc(C(F)(F)F)c2)S1 [SMI-4a] | – | – | – | – | – | – | ΔTm Average: -0.2; ΔTm Run 1: -0.3; ΔTm Run 2: -0.1 |
| Cn1cc(-c2[nH]c3cc(NC(=O)[C@H](N)C4CCCCC4)cc4c3c2C=NNC4=O)cn1 [PF-477736] | 1.3 | 1.2 | 1.2 | – | – | – | – |
| Cc1nc(NC(=O)N2CCC[C@H]2C(N)=O)sc1-c1csc(C(C)(C)C)n1 [A66] | – | – | – | – | – | – | ΔTm Average: 0 °C; ΔTm Run 1: 0.4 °C; ΔTm Run 2: -0.3 |
| CNC(=O)c1cc(Oc2ccc(NC(=O)Nc3ccc(Cl)c(C(F)(F)F)c3)cc2)ccn1 [Sorafenib] | – | – | – | -0.3 | 0.2 | -0.1 | – |
| O=c1cc(N2CCOCC2)oc2c(-c3cccc4c3sc3ccccc34)cccc12 [NU7441 (KU-57788)] | – | – | – | 0.0 | -0.2 | -0.1 | – |
| O=C(Nc1cccc(Nc2ncc(Br)c(NCCc3cnc[nH]3)n2)c1)N1CCCC1 [BX-912] | – | – | – | 0.2 | 0.2 | 0.2 | – |
| Cc1cc(Nc2cc(N3CCN(C)CC3)nc(/C=C/c3ccccc3)n2)n[nH]1 [ENMD-2076] | 0.3 | 0.1 | 0.2 | – | – | – | – |
| CC(C)(O)CC(=O)NCCn1ccc2ncnc(Nc3ccc(Oc4cccc(C(F)(F)F)c4)c(Cl)c3)c21 [TAK-285] | -0.5 | -0.2 | -0.3 | – | – | – | – |
| NC(=O)c1ncn([C@@H]2O[C@H](CO)[C@@H](O)[C@H]2O)c1N [Acadesine] | -0.2 | -0.2 | -0.2 | – | – | – | – |
| O=c1ncn2nc(Sc3ccc(F)cc3F)ccc2c1-c1c(Cl)cccc1Cl [VX-745] | 0.4 | 0.2 | 0.3 | – | – | – | – |

| Molecule | ΔTm at 10 µM [1] [°C] | ΔTm at 10 µM [2] [°C] | ΔTm at 10 µM [3] [°C] | ΔTm Run 1 [4] [°C] | ΔTm Run 2 [5] [°C] | ΔTm Average [6] [°C] | also measured |
| --- | --- | --- | --- | --- | --- | --- | --- |
| CN(C)c1ccc(-c2nc3ncc(Cl)c(N4CCN(CC(=O)Nc5nccs5)CC4)c3[nH]2)cc1 [CCT129202] | – | – | – | -0.1 | 0.0 | 0.0 | – |
| C=CCc1ccc(O)c(-c2ccc(O)c(CC=C)c2)c1 [Honokiol] | -0.2 | 0.2 | 0 | – | – | – | – |
| FC(F)(F)c1ccc(/C=C/c2nc(COc3ccc(CCCCn4ccnn4)cc3)co2)cc1 [Mubritinib (TAK 165)] | – | – | – | – | – | – | ΔTm Average: 0.2 °C; ΔTm Run 1: 0.4 °C; ΔTm Run 2: 0 °C |
| CN(c1ncccc1CNc1nc(Nc2ccc3c(c2)CC(=O)N3)ncc1C(F)(F)F)S(C)(=O)=O [PF-562271] | – | – | – | 0.3 | -0.1 | 0.1 | – |
| Nc1ncnc2c1c(-c1cccc(OCc3ccccc3)c1)cn2[C@H]1C[C@@H](CN2CCC2)C1 [NVP-AEW541] | 0.1 | -0.1 | 0 | – | – | – | – |
| CC(=O)Nc1cccc(-n2c(=O)n(C3CC3)c(=O)c3c(Nc4ccc(I)cc4F)n(C)c(=O)c(C)c32)c1 [Trametinib (GSK1120212)] | 0 | -0.5 | -0.2 | – | – | – | – |
| CC1(C)CNc2cc(NC(=O)c3cccnc3NCc3ccncc3)ccc21.O=P(O)(O)O.O=P(O)(O)O [Motesanib Diphosphate (AMG-706)] | – | – | – | 0.3 | 0.1 | 0.2 | – |
| COc1ccc(CNC(=O)Nc2ncc([N+](=O)[O-])s2)cc1 [AR-A014418] | – | – | – | 0.0 | -0.1 | -0.1 | – |
| Cc1cc(C)nc(NS(=O)(=O)c2ccc(NC(=S)NC(=O)COc3ccc(Br)cc3Cl)cc2)n1 [ZCL278] | – | – | – | 0.1 | -0.1 | 0.0 | – |
| Cc1[nH]c(/C=C2\C(=O)Nc3ccccc32)c(C)c1CCC(=O)O [TSU-68 (SU6668)] | – | – | – | 0.1 | -0.1 | 0.0 | – |
| O=C(c1cccc(Cl)c1F)N1CCN(Cc2cccc(Nc3nccs3)n2)CC1 [MK-8745] | – | – | – | 1.1 | 1.0 | 1.0 | – |
| PHT-427 | – | – | – | 0.4 | 0.3 | 0.3 | – |
| Cc1ccc(NC(=O)c2cccc(C(C)(C)C#N)c2)cc1Nc1ccc2ncn(C)c(=O)c2c1 [AZ 628] | – | – | – | 0.4 | 0.2 | 0.3 | – |
| Nc1nc(N)c(N=O)c(OCC2CCCCC2)n1 [NU6027] | – | – | – | – | – | – | ΔTm at 10 µM (read-out: ΔTm Average): 0 °C; ΔTm at 10 µM (read-out: ΔTm Run 1): 0.1 °C; ΔTm at 10 µM (read-out: ΔTm Run 2): -0.2 °C |
| NC(=O)c1ccc(N(C(N)=O)c2c(F)cccc2F)nc1-c1ccc(F)cc1F [VX-702] | 0.3 | -0.2 | 0 | – | – | – | – |
| CCNC(=O)Nc1ccc(-c2nc3c(c(N4CCOC[C@@H]4C)n2)CCN(C2COC2)C3)cc1 [GDC-0349] | -0.1 | -0.1 | -0.1 | – | – | – | – |
| CN1CCN(CCOc2cc(OC3CCOCC3)c3c(Nc4c(Cl)ccc5c4OCO5)ncnc3c2)CC1 [Saracatinib (AZD0530)] | – | – | – | 0.8 | 0.7 | 0.7 | – |
| CC(C)(C)c1cnc(CSc2cnc(NC(=O)C3CCNCC3)s2)o1 [SNS-032 (BMS-387032)] | – | – | – | 0.2 | 0.0 | 0.1 | – |
| COc1ccc(N(C(=O)Oc2c(C)cccc2C)c2ccnc(Nc3ccc(N4CCN(C)CC4)cc3)n2)c(OC)c1 [WH-4-023] | – | – | – | – | – | – | ΔTm Average: -0.3; ΔTm Run 1: -0.4; ΔTm Run 2: -0.2 |
